Results on three molecules are retold here after patent US20090088472A1, “Protective Agent for Neuronal Cell Comprising Amidino Derivative as Active Ingredient” (priority 2006, published 2009).

Assay [1] relates to retinal neuronal cells (RGC in ganglion cell layer, inner plexiform layer) damaged by NMDA. Description: NMDA-induced retinal damage in rats (intravitreal administration, histology after 14 days). It is filed as in vivo. Conditions: rat, 14 days after administration. The text has this:
In order to study the effect of protecting a retinal neuronal cell of a compound represented by the general formula [I] or a salt thereof, the effects of nafamostat and FUT-187, each of which is a compound represented by the general formula [I] or a salt thereof on NMDA-induced retinal damage in rats were studied. As comparative compounds, camostat (N,N-dimethylcarbamoylmethyl-4-(4-guanidinobenzoyloxy)phenylacetate methanesulfonate) represented by the following formula [II] and gabexate (ethyl-4-(6-guanidinohexanoyloxy)benzoate methanesulfonate) represented by the following formula [III] were used.
Each of NMDA, nafamostat and FUT-187 was dissolved in distilled water, whereby an NMDA solution, a nafamostat solution, and an FUT-187 aqueous solution were obtained. Then, the solutions were appropriately mixed, whereby an aqueous solution of 4 mM NMDA and 2 mM nafamostat (hereinafter referred to as “Test liquid 1”) and an aqueous solution of 4 mM NMDA and 2 mM FUT-187 (hereinafter referred to as “Test liquid 2”) were obtained. In the same manner, an aqueous solution of 4 mM NMDA and 20 mM camostat (hereinafter referred to as “Comparative test liquid 1”) and an aqueous solution of 4 mM NMDA and 20 mM gabexate (hereinafter referred to as “Comparative test liquid 2”) were obtained. Further, by mixing the NMDA solution and distilled water, a 4 mM NMDA liquid (hereinafter referred to as “NMDA liquid”) was obtained.
Mydriasis was induced in a rat with a 0.5% (w/v) tropicamide-0.5% phenylephrine hydrochloride ophthalmic solution, and then, anesthesia was induced with 3% halothane, and then, anesthesia was maintained with 1% halothane (halothane was vaporized with 0.5 L oxygen/min and 1.5 L dinitrogen monoxide/min). Then, a 0.4% (w/v) oxybuprocaine hydrochloride ophthalmic solution was instilled to the rat to anesthetize the surface of the eyeball, and by using a 32-gauge Hamilton microsyringe, 5 μl of Test liquid 1 was intravitreally administered under an operating microscope. Further, the same procedure as above was carried out by sequentially altering Test liquid 1 into distilled water, NMDA liquid, Test liquid 2, Comparative test liquid 1 and Comparative test liquid 2, respectively. Then, 14 days after the administration, the eyeball was taken out and fixed in 2.5% glutaraldehyde-10% neutral buffered formalin for 1 day. Thereafter, the cornea and lens were excised, and the 2.5% glutaraldehyde-10% neutral buffered formalin was changed to 10% neutral buffered formalin. At a later date, dehydration was carried out, followed by paraffin embedding and slicing and pathological tissue sections (with a thickness of 3 μm) stained with hematoxylin-eosin (HE) were prepared. From 8 sections which had been prepared by slicing the specimen with an interval of 15 μm per one eye such that the optic papilla was contained, 3 sections were optionally selected. With regard to the thus selected sections, a photograph of the retina in the range of from 1 to 1.5 mm on the left or right side from the optic papilla was taken, and the number of cells in the ganglion cell layer (GCL) in the retina (RGC number) and the thickness of the inner plexiform layer (IPL) were measured. From these measured values and in accordance with Equation 1 and Equation 2, a ganglion cell death inhibition rate and an IPL thinning inhibition rate were calculated. […]

The subject of the next assay is trypsin. Conditions: stated as known; cited from earlier work.
Setting [2] is: 10 nmol/eye co-administered with 4 mM NMDA (5 μl).
The mark [3] stands for this setting: 10 nmol/eye co-administered with 4 mM NMDA (5 μl), listed as FUT-187.
Where [4] appears, read: 100 nmol/eye co-administered with 4 mM NMDA (5 μl).
Setting [5] is: 10 nmol/eye co-administered with 4 mM NMDA (5 μl), listed as nafamostat.

As to `N=C(N)c1ccc2cc(OC(=O)c3ccc(NC4=NCCN4)cc3)ccc2c1` [Test liquid 2, 6′-amidino-2′-naphthyl-(4-(4,5-dihydro-1H-2-imidazolyl)amino)benzoate dimethanesulfonate], the figures for the “Ganglion cell death inhibition rate” value in assay [1] (setting [2]) and in assay [1] (setting [3]) were 136.8% and “high”, respectively. The “IPL thinning inhibition rate” value in assay [1] (setting [2]) is on record as 63.1%; in assay [1] (setting [3]), “high”. Also, the trypsin inhibitory activity result with trypsin is reported as “have the same activity”.
As for `CCOC(=O)c1ccc(OC(=O)CCCCCNC(=N)N)cc1` [Comparative test liquid 2, ethyl-4-(6-guanidinohexanoyloxy)benzoate methanesulfonate], in assay [1] (setting [4]), the “Ganglion cell death inhibition rate” value is recorded as 17.8% and the “IPL thinning inhibition rate” value turned out to be 2.4%. Moreover, in the assay on trypsin, the trypsin inhibitory activity entry is “have a trypsin inhibitory activity”.
Regarding `N=C(N)Nc1ccc(C(=O)Oc2ccc3cc(C(=N)N)ccc3c2)cc1` [Test liquid 1, 6′-amidino-2′-naphthyl-4-guanidinobenzoate dimethanesulfonate], in assay [1] (setting [2]), the “Ganglion cell death inhibition rate” value was 78.8% and the “IPL thinning inhibition rate” value turned out to be 54.8%. Moreover, in assay [1] (setting [5]), the “Ganglion cell death inhibition rate” value was “high” and the “IPL thinning inhibition rate” value was “high”. Also, the trypsin inhibitory activity result in the assay on trypsin was “have the same activity”.
